Data published in US11542264B2, “Heteroaromatic NMDA receptor modulators and uses thereof” (Cadent Therapeutics, Inc., priority 2018, dated 2023).
≈ marks a conversion by molar mass, not a printed value. Entries after “also recorded” stand apart in the source; their conditions may differ. Where two headings read alike, the source gives them in different places. Each block holds one molecule with its values, some of them ahead of it.

Key:
[1] = Rat liver microsome stability; format: in vitro ADME; settings: for half-life: rat, liver microsomes, read-out: Rat liver microsome (RLM) stability t1/2
Source text: (§1) The liver is the most important site of drug metabolism in the body. Approximately 60% of marketed compounds are cleared by hepatic CYP-mediated metabolism (McGinnity, D. F.; Soars, M. G.; Urbanowicz, R. A. and Riley, R. J.; Drug Metab. Disp. 32, 1247, (2004)). Liver microsomes are subcellular fractions which contain membrane bound drug metabolizing enzymes. Microsomes can be used to determine the in vitro intrinsic clearance of a compound. The use of species-specific microsomes can be used to enable an understanding of interspecies differences.

[2] = Aqueous solubility, shake-flask method; format: physicochemical; settings: phosphate buffer saline, pH 7.4, shake-flask, HPLC-UV
Procedure: The aqueous solubility of the test compound was determined in phosphate buffer saline, pH 7.4, measured by shake-flask method. In this assay, DMSO stock solution of test compound was added to buffer followed by equilibration (shaking), filtration, and determination of soluble amount by HPLC-UV. […] Other imidazopyrazinone comparators from WO 2017/100591 are provided for reference. All comparator analogs are active and potency data is available in WO 2017/100591. This improvement is advantageous because improved aqueous solubility, in one aspect, is anticipated to provide enhanced in vivo performance in humans.

[3] = test system: impairment of MMN by MK-801; assay: Mismatch negativity (MMN) efficacy model; settings: rat, 60 mg/kg BID, MK-801 0.2 mg/kg IP
Procedure: Rats implanted with frontal EEG electrodes were presented with different audio stimuli comprising an auditory oddball “flip-flop” protocol. Briefly, 1,000 standard tones of 6.0 kHz were delivered at 90% probability, and 100 deviant tones of 8.0 kHz were delivered at 10% probability in pseudo-random order (the flip sequence), and then this sequence was then repeated with the 8 kHz tone as the standard, and the 6 kHz tone as the deviant (the flop sequence). MMN is calculated as a difference potential obtained by subtracting the averaged 8 kHz standard tone response (flop) from the averaged 8 kHz deviance tone response (flip) at each 1 ms time point over the EEG recording epochs from 50 ms prior to 150 ms after the onset of these 50 ms auditory tones.
Test sessions were comprised of three 20-minute flip-flop blocks.

hNR2B [4] = molecular target: T1, hNR2B (Homo sapiens, UniProt Q13224); assay: Oocyte 2EVC NR2B PAM activity; format: cell-based
T1 construct: expressed in transfected cells
Source text: (§2) EC50 refers to the concentration of a compound that gives half-maximal response.

hNR2B [5] = molecular target: T2, hNR2B (Homo sapiens, UniProt Q05586+Q13224); assay: Oocyte 2EVC NR2B PAM activity; format: cell-based
T2 construct: expressed in transfected cells
T2 sequence (Q13224 27-1484, other chains not shown): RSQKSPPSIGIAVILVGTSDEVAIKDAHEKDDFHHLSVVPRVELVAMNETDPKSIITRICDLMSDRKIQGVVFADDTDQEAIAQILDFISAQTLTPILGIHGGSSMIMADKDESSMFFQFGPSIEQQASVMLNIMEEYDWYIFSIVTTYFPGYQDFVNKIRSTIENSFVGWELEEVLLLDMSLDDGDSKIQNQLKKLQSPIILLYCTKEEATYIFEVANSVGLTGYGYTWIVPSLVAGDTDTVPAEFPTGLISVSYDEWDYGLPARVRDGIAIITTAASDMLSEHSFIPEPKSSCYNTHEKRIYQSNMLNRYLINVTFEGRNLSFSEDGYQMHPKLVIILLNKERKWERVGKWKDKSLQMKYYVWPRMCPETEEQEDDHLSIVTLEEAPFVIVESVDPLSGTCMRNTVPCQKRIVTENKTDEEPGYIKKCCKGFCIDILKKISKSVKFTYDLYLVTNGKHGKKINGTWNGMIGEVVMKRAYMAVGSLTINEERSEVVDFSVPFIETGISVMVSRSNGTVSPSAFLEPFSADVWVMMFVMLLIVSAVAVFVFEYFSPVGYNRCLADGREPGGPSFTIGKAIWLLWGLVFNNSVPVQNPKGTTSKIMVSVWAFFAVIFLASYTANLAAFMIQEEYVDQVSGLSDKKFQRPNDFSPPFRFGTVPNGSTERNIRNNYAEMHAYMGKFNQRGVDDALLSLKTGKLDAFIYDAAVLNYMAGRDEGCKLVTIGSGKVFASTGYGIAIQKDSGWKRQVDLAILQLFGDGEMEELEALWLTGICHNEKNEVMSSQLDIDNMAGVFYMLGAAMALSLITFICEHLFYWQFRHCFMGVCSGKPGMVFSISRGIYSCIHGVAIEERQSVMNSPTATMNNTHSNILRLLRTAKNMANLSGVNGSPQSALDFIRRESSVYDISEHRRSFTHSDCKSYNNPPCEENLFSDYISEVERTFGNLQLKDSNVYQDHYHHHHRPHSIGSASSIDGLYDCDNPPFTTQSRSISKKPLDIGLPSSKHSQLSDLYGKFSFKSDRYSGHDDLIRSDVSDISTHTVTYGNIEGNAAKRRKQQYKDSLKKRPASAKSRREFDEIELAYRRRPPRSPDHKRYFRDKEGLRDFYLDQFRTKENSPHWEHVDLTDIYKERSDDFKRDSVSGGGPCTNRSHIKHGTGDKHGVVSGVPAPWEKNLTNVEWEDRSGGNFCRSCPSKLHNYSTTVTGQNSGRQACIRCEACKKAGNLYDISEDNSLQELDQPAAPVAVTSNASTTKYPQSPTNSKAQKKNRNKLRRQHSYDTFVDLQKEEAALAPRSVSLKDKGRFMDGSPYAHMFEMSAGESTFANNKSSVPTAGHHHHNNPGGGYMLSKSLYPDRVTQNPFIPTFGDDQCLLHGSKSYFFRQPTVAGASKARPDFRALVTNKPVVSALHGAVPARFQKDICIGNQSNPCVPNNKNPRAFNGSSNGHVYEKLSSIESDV
Source text: as §2

hNR2C = molecular target: T3, hNR2C (Homo sapiens, UniProt Q14957); assay: Oocyte 2EVC NR2C PAM activity; format: cell-based
T3 construct: expressed in transfected cells
T3 sequence (Q14957 20-1233, other chains not shown): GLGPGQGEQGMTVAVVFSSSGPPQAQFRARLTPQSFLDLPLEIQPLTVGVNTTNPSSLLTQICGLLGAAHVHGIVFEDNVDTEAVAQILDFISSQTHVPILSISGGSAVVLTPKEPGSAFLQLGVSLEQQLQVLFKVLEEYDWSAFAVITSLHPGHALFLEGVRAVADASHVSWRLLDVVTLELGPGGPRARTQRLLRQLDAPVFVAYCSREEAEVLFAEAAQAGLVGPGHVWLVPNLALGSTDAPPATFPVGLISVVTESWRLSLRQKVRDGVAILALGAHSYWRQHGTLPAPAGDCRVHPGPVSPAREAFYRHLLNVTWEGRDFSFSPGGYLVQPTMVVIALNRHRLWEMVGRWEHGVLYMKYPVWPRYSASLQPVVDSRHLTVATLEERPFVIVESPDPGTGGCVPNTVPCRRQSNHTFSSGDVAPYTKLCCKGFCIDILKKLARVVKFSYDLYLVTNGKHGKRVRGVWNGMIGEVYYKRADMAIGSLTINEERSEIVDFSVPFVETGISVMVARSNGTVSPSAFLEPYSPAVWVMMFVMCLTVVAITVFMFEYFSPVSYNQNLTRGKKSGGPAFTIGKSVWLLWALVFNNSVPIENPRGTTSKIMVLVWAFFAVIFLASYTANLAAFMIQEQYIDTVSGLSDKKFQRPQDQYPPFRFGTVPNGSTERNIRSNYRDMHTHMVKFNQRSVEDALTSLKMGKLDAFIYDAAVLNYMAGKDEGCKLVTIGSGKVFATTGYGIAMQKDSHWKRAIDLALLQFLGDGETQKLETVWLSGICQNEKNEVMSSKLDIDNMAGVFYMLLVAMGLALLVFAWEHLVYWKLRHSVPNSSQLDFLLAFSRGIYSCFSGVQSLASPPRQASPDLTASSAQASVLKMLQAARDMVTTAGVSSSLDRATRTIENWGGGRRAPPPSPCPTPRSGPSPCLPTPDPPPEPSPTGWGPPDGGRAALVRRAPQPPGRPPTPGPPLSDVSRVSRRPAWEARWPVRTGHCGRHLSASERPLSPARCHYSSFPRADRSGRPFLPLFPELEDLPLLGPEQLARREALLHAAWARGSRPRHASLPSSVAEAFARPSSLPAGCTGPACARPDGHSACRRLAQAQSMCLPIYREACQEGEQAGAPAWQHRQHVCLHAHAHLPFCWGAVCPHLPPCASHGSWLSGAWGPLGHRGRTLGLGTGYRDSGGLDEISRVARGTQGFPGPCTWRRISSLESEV
Source text: as §2

[6] = Human liver microsome stability; format: in vitro ADME
Source text: as §1

[7] = Rat IV pharmacokinetic study, in vivo clearance
Source text: Rat microsomal stability data is provided as well. These improvements in in vitro and in vivo clearance are advantageous because reduced clearance, in one aspect, is anticipated to provide enhanced in vivo performance in humans.

MDR1 = assay: MDCK permeability and efflux assay; format: in vitro ADME; settings: dog, MDR1-transfected MDCK cells
Source text: (§3) Monolayer systems consist of a tight cell layer grown on a porous support to separate two fluid compartments. They are widely regarded as the most sophisticated in vitro tools for medium to high throughput modeling of important pharmacokinetic barriers, such as intestinal epithelium, blood-brain barrier, etc. (J. Pharm Sci. 2012 April; 101(4): 1337-1354). Two systems that are applied widely in monolayer studies are the human colon carcinoma cell line Caco-2 and MDR1-transfected MDCKII and LLC-PK1 cells. In monolayer assays, the flux of a compound through the monolayer of cells is measured. The unidirectional flux of the compound of interest is determined by applying it to either the apical or to the basolateral side of the cell layer and monitoring the time resolved redistribution of it between the two compartments. The vectorial transport ratio (often referred to as Efflux Ratio) is determined by applying bidirectional measurements [apical-to-basolateral (A-B) and basolateral-to-apical (B-A)]. […] In the absence of such transport processes this ratio is approximately 1.

[8] = test system: MDR1-transfected MDCK cells; assay: MDCK permeability and efflux assay; format: in vitro ADME
Source text: as §3

[9] = test system: PCP-induced cognitive impairment; assay: Rat Novel Object Recognition (NOR) test, PCP-induced cognitive impairment; settings: oral
Procedure: Rats were treated twice daily for 7 days with either saline vehicle (control group) or PCP (5 mg/kg, intraperitoneal). Following a 14-day washout period of no treatment, rats were tested in the NOR paradigm. Briefly, testing involves two sessions (T1 and T2), each lasting 3 minutes, 1 hour apart. […] In T1, rats are placed in a test arena with two identical objects and allowed to freely explore while their time spent exploring each object is recorded. In T2, rats are returned to the test arena where one of the objects remains the same and the other has been replaced with a novel object. The time spent exploring the novel object versus the time spent exploring the familiar object are recorded and compared to T1 object exploration times.

hNR2D [10] = molecular target: T4, hNR2D (Homo sapiens, UniProt O15399); assay: Oocyte 2EVC NR2D PAM activity; format: cell-based
T4 construct: expressed in transfected cells
T4 sequence (O15399 28-1336, other chains not shown): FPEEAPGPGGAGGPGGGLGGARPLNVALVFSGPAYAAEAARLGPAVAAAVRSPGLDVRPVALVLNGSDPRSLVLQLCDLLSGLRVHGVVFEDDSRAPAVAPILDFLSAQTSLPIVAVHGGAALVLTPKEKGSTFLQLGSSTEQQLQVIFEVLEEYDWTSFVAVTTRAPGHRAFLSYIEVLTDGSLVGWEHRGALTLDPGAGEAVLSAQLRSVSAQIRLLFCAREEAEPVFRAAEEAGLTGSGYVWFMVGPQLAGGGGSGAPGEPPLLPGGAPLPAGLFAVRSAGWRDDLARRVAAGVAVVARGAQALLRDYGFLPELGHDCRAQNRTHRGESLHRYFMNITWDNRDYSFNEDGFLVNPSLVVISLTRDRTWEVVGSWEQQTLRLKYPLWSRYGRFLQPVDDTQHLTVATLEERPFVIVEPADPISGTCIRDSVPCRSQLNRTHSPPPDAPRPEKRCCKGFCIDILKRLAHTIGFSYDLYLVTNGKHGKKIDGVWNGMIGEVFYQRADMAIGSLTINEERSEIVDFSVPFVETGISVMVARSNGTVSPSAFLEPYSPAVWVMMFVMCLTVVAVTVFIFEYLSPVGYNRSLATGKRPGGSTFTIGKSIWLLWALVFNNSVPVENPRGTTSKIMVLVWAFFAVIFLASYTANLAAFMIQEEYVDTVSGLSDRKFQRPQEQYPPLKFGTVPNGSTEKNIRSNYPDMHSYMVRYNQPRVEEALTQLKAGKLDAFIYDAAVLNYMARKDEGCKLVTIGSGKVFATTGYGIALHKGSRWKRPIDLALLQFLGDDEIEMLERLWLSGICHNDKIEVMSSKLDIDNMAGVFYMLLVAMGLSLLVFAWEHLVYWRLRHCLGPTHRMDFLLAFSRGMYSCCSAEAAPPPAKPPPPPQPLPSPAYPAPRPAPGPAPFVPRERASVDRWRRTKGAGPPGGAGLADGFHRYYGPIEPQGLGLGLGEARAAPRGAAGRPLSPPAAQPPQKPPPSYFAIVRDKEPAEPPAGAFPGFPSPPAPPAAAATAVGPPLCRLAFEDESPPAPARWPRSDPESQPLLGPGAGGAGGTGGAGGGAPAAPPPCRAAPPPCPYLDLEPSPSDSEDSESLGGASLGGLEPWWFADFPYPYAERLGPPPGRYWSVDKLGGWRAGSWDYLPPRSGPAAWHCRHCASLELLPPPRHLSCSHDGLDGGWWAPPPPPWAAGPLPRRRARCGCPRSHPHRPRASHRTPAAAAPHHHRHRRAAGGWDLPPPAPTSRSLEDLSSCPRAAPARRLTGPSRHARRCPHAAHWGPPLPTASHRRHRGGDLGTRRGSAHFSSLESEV
Source text: as §2

hNR2D [11] = molecular target: T5, hNR2D (Homo sapiens, UniProt O15399+Q05586); assay: Oocyte 2EVC NR2D PAM activity; format: cell-based; settings: oocytes expressing hNR2D, 10 μM glutamate and 10 μM glycine
T5 construct: expressed in transfected cells
T5 sequence (O15399 28-1336, other chains not shown): as above
Source text: as §2

NMDA receptor = settings: cited from earlier work; for % response recovered with Ro 25-6981 and DCKA: Table 49 of WO 2017/100591; for Maximum measured potentiation (%) with Ro 25-6981 and DCKA: comparator examples from WO 2017/100591
[12] = 100% potentiation = doubling of current induced by glutamate/glycine
[13] = 10 μM glutamate and 10 μM glycine
[14] = Table 4, read-out: Oocyte 2EVC NR2B PAM: EC50
[15] = Table 1, read-out: Oocyte 2EVC NR2B PAM: EC50

stability in Rat Liver Microsomes (in words) [1]: excellent stability
Rat liver microsome (RLM) stability t1/2 ([1]; Table 4): >120 min
RLM t1/2 ([1]; rat liver microsomes): >120 min
RLM % Metabolized after 30 min ([1]; rat liver microsomes, 30 min): 1.83%
microsomal CLint ([1]; rat liver microsomes, read-out: RLM mCLint): < 5 µL/min/mg
half-life ([1]; Table 4): > 120 min
solubility ([2]; pH 7.4, aqueous buffer, kinetic from dmso stock): 29 µM (≈ 12.6 µg/mL)
Oocyte 2EVC NR2B PAM: Concentration Required for Current Doubling (hNR2B [4]; 5 μM glutamate and 3 μM glycine): 160 nM
Oocyte 2EVC NR2B PAM: Avg Max % Potentiation (hNR2B [4]; [12]): 478%
EC50 (hNR2B [5]; oocytes expressing hNR2B, 5 μM glutamate and 3 μM glycine, read-out: Oocyte 2EVC NR2B PAM: Avg EC50): 446 nM
Oocyte 2EVC NR2C PAM: Concentration Required for Current Doubling (hNR2C; [13]): 120 nM
Oocyte 2EVC NR2C PAM: Avg Max % Potentiation (hNR2C; [12]): 1800%
EC50 (hNR2C; oocytes expressing hNR2C, 10 μM glutamate and 10 μM glycine): 1200 nM
stability in Human Liver Microsomes (in words) [6]: good stability
HLM % Metabolized after 30 min ([6]; human liver microsomes, 30 min): 34.3%
microsomal CLint ([6]; human liver microsomes, read-out: HLM mCLint): 27.3 µL/min/mg
half-life ([6]; human liver microsomes, read-out: HLM t1/2): 50.8 min
clearance [7]: 7.4 mL/min/kg
Papp A→B (MDR1; MDCK-MDR1, apical-to-basolateral): 32 ×10⁻⁶ cm/s
Papp B→A (MDR1; MDCK-MDR1, basolateral-to-apical): 32 ×10⁻⁶ cm/s
efflux in the MDCK efflux assay (in words) ([8]; MDCK): not subject to efflux
membrane penetration (in words) ([8]; MDCK): penetrates membranes well
A-B MDCK Permeability ([8]; apical-to-basolateral, MDR1-transfected MDCK cells): 32.3 10^−6 cm/sec
B-A MDCK Permeability ([8]; basolateral-to-apical, MDR1-transfected MDCK cells): 32.1 10^−6 cm/sec
Oocyte 2EVC NR2D PAM: Concentration Required for Current Doubling (hNR2D [10]; [13]): 165 nM
Oocyte 2EVC NR2D PAM: Avg Max % Potentiation (hNR2D [10]; [12]): 1700%
EC50 (hNR2D [11]): 1890 nM
Compound: CC1(F)CN(C(=O)Cn2cnc3c(c(-c4ccc(F)c(Cl)c4)cn3C3CC3)c2=O)C1 [Compound 1, 5-(3-chloro-4-fluorophenyl)-7-cyclopropyl-3-(2-(3-fluoro-3-methylazetidin-1-yl)-2-oxoethyl)-3,7-dihydro-4H-pyrrolo[2,3-d]pyrimidin-4-one]
MMN after Compound 1 plus MK-801 [3]: prevented impairment of MMN by MK-801
reversal of PCP-induced deficit in novel object exploration time ([9]; 0.3 mg/kg): significantly reversed this deficit
reversal of PCP-induced deficit in novel object exploration time ([9]; 1.0 mg/kg): significantly reversed this deficit; also recorded: fully-reversed the PCP-induced deficit

half-life ([1]; Table 4): 47.2 min
EC50 (hNR2B [5]; [14]): 7010 nM
clearance [7]: 43.6 mL/min/kg
Compound: O=C(Cn1ccc2scc(-c3ccc(F)c(Cl)c3)c2c1=O)N1CCCC1 [Example 3]

half-life ([1]; Table 4): 37.8 min
EC50 (hNR2B [5]; [14]): 3530 nM
clearance [7]: 35.5 mL/min/kg
Compound: O=C(Cn1ccc2scc(-c3ccc(F)c(Cl)c3)c2c1=O)N1CCC(F)C1 (centres unmarked) [Example 9]

half-life ([1]; Table 4): 200 min
EC50 (hNR2B [5]; [14]): 5630 nM
clearance [7]: 19.4 mL/min/kg
Compound: O=C(Cn1ccc2scc(-c3cnc(Cl)c(Cl)c3)c2c1=O)N1CCC(F)C1 (centres unmarked) [Example 12]

half-life ([1]; Table 4): 42 min
EC50 (hNR2B [5]; [14]): 726 nM
clearance [7]: 27.8 mL/min/kg
Compound: CC1(F)CN(C(=O)Cn2ccc3scc(-c4ccc(F)c(Cl)c4)c3c2=O)C1 [Example 39]

half-life ([1]; Table 4): 36 min
EC50 (hNR2B [5]; [14]): 463 nM
clearance [7]: 26.9 mL/min/kg
Compound: CC1(F)CN(C(=O)Cn2ccc3scc(-c4ccc(Cl)c(Cl)c4)c3c2=O)C1 [Example 42]

half-life ([1]; Table 4): 60.8 min
EC50 (hNR2B [5]; [14]): 441 nM
clearance [7]: 29.4 mL/min/kg
Compound: CC1(F)CN(C(=O)Cn2ccc3scc(-c4ccc(F)c(C(F)(F)F)c4)c3c2=O)C1 [Example 43]

EC50 (hNR2B [5]; [15]): 1500 nM
Compound: O=C(Cn1cnc2[nH]cc(-c3ccc(F)c(C(F)(F)F)c3)c2c1=O)N1CCC(F)C1 (centres unmarked) [Example 174]
% response recovered with Ro 25-6981 and DCKA (NMDA receptor): 91%
Maximum measured potentiation (%) with Ro 25-6981 and DCKA (NMDA receptor): 124%

EC50 (hNR2B [5]; [15]): 1190 nM
Compound: O=C(Cn1cnc2[nH]cc(-c3ccc(Cl)c(C(F)(F)F)c3)c2c1=O)N1C[C@@H](F)[C@@H](F)C1 [Example 181]
% response recovered with Ro 25-6981 and DCKA (NMDA receptor): 69%
Maximum measured potentiation (%) with Ro 25-6981 and DCKA (NMDA receptor): 129%

half-life ([1]; Table 4): 37.8 min
EC50 (hNR2B [5]; [14]): 200 nM
clearance [7]: 22.2 mL/min/kg
Compound: CC1(F)CN(C(=O)Cn2ccc3c(c(-c4ccc(F)c(Cl)c4)cn3C3CC3)c2=O)C1 [Example 285]
potency in the Ro 25-6981/DCKA assay (in words) (NMDA receptor; data of WO 2017/100591): excellent potency

half-life ([1]; Table 4): 75 min
EC50 (hNR2B [5]; [14]): 589 nM
clearance [7]: 23.4 mL/min/kg
Compound: CC1(F)CN(C(=O)Cn2ccn3ccc(-c4ccc(Cl)c(Cl)c4)c3c2=O)C1 [Example 396]

half-life ([1]; Table 4): 37.3 min
EC50 (hNR2B [5]; [14]): 1210 nM
clearance [7]: 46.2 mL/min/kg
Compound: CC1(F)CN(C(=O)Cn2ccn3ccc(-c4ccc(F)c(Cl)c4)c3c2=O)C1 [Example 397]

Aqueous solubility [2]: 20 µM
Compound: Cc1nc(-c2ccc(F)c(Cl)c2)c2c(=O)n(CC(=O)N3CC(C)(F)C3)ccn12 [Example 426]
